Experimental data from patent US10544149B2, “Bicyclic alkyne derivatives and uses thereof” (Agency for Science, Technology and Research, priority 2013, dated 2020).

Legend:
[1] = molecular target: MNK1 (Homo sapiens, UniProt Q9BUB5); assay: MNK1 enzymatic assay; assay type: biochemical
[2] = test system: eIF4e phosphorylation in Hela cell line; assay: eIF4e phosphorylation inhibition in Hela cell line; assay type: cell-based; conditions: Homo sapiens, cellular
[3] = molecular target: MNK2 (Homo sapiens, UniProt Q9HBH9); assay: MNK2 enzymatic assay; assay type: biochemical
Sequence of MNK2 (Q9HBH9 whole entry): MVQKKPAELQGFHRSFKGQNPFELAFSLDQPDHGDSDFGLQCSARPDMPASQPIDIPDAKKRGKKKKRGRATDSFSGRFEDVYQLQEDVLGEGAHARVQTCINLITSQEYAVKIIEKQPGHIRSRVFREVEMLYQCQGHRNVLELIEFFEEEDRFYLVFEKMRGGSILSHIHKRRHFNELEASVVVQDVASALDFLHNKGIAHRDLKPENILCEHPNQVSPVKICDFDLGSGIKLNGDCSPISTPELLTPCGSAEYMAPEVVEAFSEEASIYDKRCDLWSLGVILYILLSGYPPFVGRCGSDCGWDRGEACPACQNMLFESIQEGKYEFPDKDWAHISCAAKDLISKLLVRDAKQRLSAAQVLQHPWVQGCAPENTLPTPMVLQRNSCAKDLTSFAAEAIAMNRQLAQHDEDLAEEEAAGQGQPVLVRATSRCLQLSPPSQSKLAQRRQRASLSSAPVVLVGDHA

Sequence of MNK1 (Q9BUB5 whole entry): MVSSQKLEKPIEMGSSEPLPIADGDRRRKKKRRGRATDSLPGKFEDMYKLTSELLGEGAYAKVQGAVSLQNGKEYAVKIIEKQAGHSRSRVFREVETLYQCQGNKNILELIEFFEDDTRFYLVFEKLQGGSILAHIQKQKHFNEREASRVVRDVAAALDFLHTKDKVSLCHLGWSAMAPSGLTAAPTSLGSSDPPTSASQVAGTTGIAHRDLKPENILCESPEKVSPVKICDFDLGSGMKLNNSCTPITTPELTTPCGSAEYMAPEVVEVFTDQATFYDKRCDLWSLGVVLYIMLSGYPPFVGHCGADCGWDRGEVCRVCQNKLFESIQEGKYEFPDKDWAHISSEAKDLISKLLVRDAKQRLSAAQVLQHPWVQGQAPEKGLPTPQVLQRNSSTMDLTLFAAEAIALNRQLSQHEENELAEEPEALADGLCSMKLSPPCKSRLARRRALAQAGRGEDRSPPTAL

Row | SMILES | IC50 [1] | IC50 [2] | IC50 [3]
1 | Cc1ccccc1Nc1cc(C#Cc2cnc3ccc(-c4ccc(C(=O)N5CCOCC5)cc4)nn23)ccn1 [Example 052, morpholino(4-(3-((2-(o-tolylamino)pyridin-4-yl)ethynyl)imidazo[1,2-b]pyridazin-6-yl)phenyl)methanone] | < 0.5 µM | < 5 µM | < 0.5 µM
2 | O=C(c1ccc(-c2ccc3ncc(C#Cc4ccnc(Nc5nccs5)c4)n3n2)cc1)N1CCOCC1 [Example 053, morpholino(4-(3-((2-(thiazol-2-ylamino)pyridin-4-yl)ethynyl)imidazo[1,2-b]pyridazin-6-yl)phenyl)methanone] | < 0.5 µM | < 5 µM | < 0.5 µM
3 | O=C(c1ccc(-c2ccc3ncc(C#Cc4ccnc(Nc5ccncn5)c4)n3n2)cc1)N1CCOCC1 [Example 054, morpholino(4-(3-((2-(pyrimidin-4-ylamino)pyridin-4-yl)ethynyl)imidazo[1,2-b]pyridazin-6-yl)phenyl)methanone] | < 0.5 µM | < 5 µM | < 0.5 µM
4 | O=C(c1ccc(-c2ccc3ncc(C#Cc4ccnc(Nc5ccccc5C(F)(F)F)c4)n3n2)cc1)N1CCOCC1 [Example 055, morpholino(4-(3-((2-((2-(trifluoromethyl)phenyl)amino)pyridin-4-yl)ethynyl)imidazo[1,2-b]pyridazin-6-yl)phenyl)methanone] | < 0.5 µM | < 5 µM | < 0.5 µM
5 | O=C(c1ccc(-c2ccc3ncc(C#Cc4ccnc(Nc5ncccn5)c4)n3n2)cc1)N1CCOCC1 [Example 056, morpholino(4-(3-((2-(pyrimidin-2-ylamino)pyridin-4-yl)ethynyl)imidazo[1,2-b]pyridazin-6 yl)phenyl)methanone] | < 0.5 µM | < 5 µM | < 0.5 µM
6 | Cc1cccc(Nc2cc(C#Cc3cnc4ccc(-c5ccc(C(=O)N6CCOCC6)cc5)nn34)ccn2)c1 [Example 057, morpholino(4-(3-((2-(m-tolylamino)pyridin-4-yl)ethynyl)imidazo[1,2-b]pyridazin-6-yl)phenyl)methanone] | < 0.5 µM | < 5 µM | < 0.5 µM
7 | Cc1ccc(Nc2cc(C#Cc3cnc4ccc(-c5ccc(C(=O)N6CCOCC6)cc5)nn34)ccn2)cc1 [Example 058, morpholino(4-(3-((2-(p-tolylamino)pyridin-4-yl)ethynyl)imidazo[1,2-b]pyridazin-6-yl)phenyl)methanone] | < 0.5 µM | < 5 µM | < 0.5 µM
8 | CC(C)c1ccccc1Nc1cc(C#Cc2cnc3ccc(-c4ccc(C(=O)N5CCOCC5)cc4)nn23)ccn1 [Example 059, (4-(3-((2-(2-isopropylphenylamino)pyridin-4-yl)ethynyl)imidazo[1,2-b]pyridazin-6-yl)phenyl)(morpholino)methanone] | < 0.5 µM | < 5 µM | < 0.5 µM
9 | O=C(c1ccc(-c2ccc3ncc(C#Cc4ccnc(Nc5ccccc5-c5ccccc5)c4)n3n2)cc1)N1CCOCC1 [Example 060, (4-(3-((2-(biphenyl-2-ylamino)pyridin-4-yl)ethynyl)imidazo[1,2-b]pyridazin-6-yl)phenyl)(morpholino)methanone] | < 0.5 µM | < 5 µM | < 0.5 µM
10 | Cc1ccccc1C(=O)Nc1cc(C#Cc2cnc3ccc(-c4ccc(C(=O)N5CCOCC5)cc4)nn23)ccn1 [Example 063, 2-methyl-N-(4-((6-(4-(morpholine-4-carbonyl)phenyl)imidazo[1,2-b]pyridazin-3-yl)ethynyl)pyridin-2-yl)benzamide] | < 0.5 µM | < 5 µM | < 0.5 µM
11 | O=C(Nc1cc(C#Cc2cnc3ccc(-c4ccc(C(=O)N5CCOCC5)cc4)nn23)ccn1)c1ccncc1 [Example 064, N-(4-((6-(4-(morpholine-4-carbonyl)phenyl)imidazo[1,2-b]pyridazin-3-yl)ethynyl)pyridin-2-yl)isonicotinamide] | < 0.5 µM | < 5 µM | < 0.5 µM
12 | O=C(Nc1cc(C#Cc2cnc3ccc(-c4ccc(C(=O)N5CCOCC5)cc4)nn23)ccn1)c1cccnc1 [Example 065, N-(4-((6-(4-(morpholine-4-carbonyl)phenyl)imidazo[1,2-b]pyridazin-3-yl)ethynyl)pyridin-2-yl)nicotinamide] | < 0.5 µM | < 5 µM | < 0.5 µM
13 | O=C(c1ccc(-c2ccc3ncc(C#Cc4ccnc(-c5ccccc5)c4)n3n2)cc1)N1CCOCC1 [Example 070, morpholino(4-(3-((2-phenylpyridin-4-yl)ethynyl)imidazo[1,2-b]pyridazin-6-yl)phenyl)methanone] | < 0.5 µM | < 5 µM | < 0.5 µM
14 | CN(c1ccccc1)c1cc(C#Cc2cnc3ccc(-c4ccc(C(=O)N5CCOCC5)cc4)nn23)ccn1 [Example 071, (4-(3-((2-(methyl(phenyl)amino)pyridin-4-yl)ethynyl)imidazo[1,2-b]pyridazin-6-yl)phenyl) (morpholino) methanone] | < 0.5 µM | < 5 µM | < 0.5 µM
15 | O=C(c1ccc(-c2ccc3ncc(C#Cc4cc(NCc5ccccc5)nc5[nH]ccc45)n3n2)cc1)N1CCOCC1 [Example 073, (4-(3-((6-(benzylamino)-1H-pyrrolo[2,3-b]pyridin-4-yl)ethynyl)imidazo[1,2-b]pyridazin-6-yl)phenyl)(morpholino)methanone] | < 0.5 µM | < 5 µM | < 0.5 µM
16 | NC(=O)c1ccc(-c2ccc3ncc(C#Cc4ccnc(N)c4)n3n2)cc1 [Example 074, 4-(3-((2-aminopyridin-4-yl)ethynyl)imidazo[1,2-b]pyridazin-6-yl)benzamide] | < 0.5 µM | < 5 µM | < 0.5 µM
17 | C(#Cc1cnc2ccc(-c3ccc(CN4CCOCC4)cc3)nn12)c1ccnc2[nH]ccc12 [Example 075, 4-(4-(3-((1H-pyrrolo[2,3-b]pyridin-4-yl)ethynyl)imidazo[1,2-b]pyridazin-6-yl)benzyl)morpholine] | < 0.5 µM | < 5 µM | < 0.5 µM
18 | CN1CCN(C(=O)c2ccc(-c3cn4c(C#Cc5ccccc5)cnc4cn3)cc2)CC1 [Example 089, (4-methylpiperazin-1-yl) (4-(3-(phenylethynyl)imidazo[1,2-a]pyrazin-6-yl)phenyl)methanone] | < 0.5 µM | < 5 µM | < 0.5 µM
19 | O=C(c1ccc(-c2ccc3ncc(C#Cc4ccncc4)n3c2)cc1)N1CCOCC1 [Example 094] | < 0.5 µM | < 5 µM | < 0.5 µM
20 | Cc1cnccc1C#Cc1cnc2ccc(-c3ccc(C(=O)N4CCOCC4)cc3)cn12 [Example 095, (4-(3-((3-methylpyridin-4-yl)ethynyl)imidazo[1,2-a]pyridin-6-yl)phenyl) (morpholino)methanone] | < 0.5 µM | < 5 µM | < 0.5 µM
21 | Nc1cc(C#Cc2cnc3ccc(-c4ccc(C(=O)N5CCOCC5)cc4)cn23)ccn1 [Example 096] | < 0.5 µM | < 5 µM | < 0.5 µM
22 | O=C(c1ccc(-c2ccc3ncc(C#Cc4ccnc5[nH]ncc45)n3c2)cc1)N1CCOCC1 [Example 097, (4-(3-((1H-pyrazolo[3,4-b]pyridin-4-yl)ethynyl)imidazo[1,2-a]pyridin-6-yl)phenyl)(morpholino)methanone] | < 0.5 µM | < 5 µM | < 0.5 µM
